# Laboratory results taken from BindingDB's records for doi:10.1016/0167-0115(94)90537-1 (Universit&Eacute, 1994).
# Peptide text beside a SMILES is read from it.
# Molecular target: T1, VIP peptides (Rattus norvegicus, UniProt P01283)
# T1 sequence (P01283 whole entry): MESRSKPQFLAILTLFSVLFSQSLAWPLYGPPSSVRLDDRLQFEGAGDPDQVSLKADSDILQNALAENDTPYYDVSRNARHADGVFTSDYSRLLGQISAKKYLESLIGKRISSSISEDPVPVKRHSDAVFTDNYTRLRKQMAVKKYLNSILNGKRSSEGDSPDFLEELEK
row,Ki,Compound
1,300 nM,CC[C@H](C)[C@H](NC(=O)CNC(=O)[C@H](CC(=O)O)NC(=O)[C@H](CO)NC(=O)[C@@H](N)Cc1ccccc1)C(=O)N[C@@H](Cc1ccccc1)C(=O)N[C@H](C(=O)N[C@@H](CC(=O)O)C(=O)N[C@@H](CO)C(=O)N[C@@H](Cc1ccc(O)cc1)C(=O)N[C@@H](CO)C(=O)N[C@@H](CCCN=C(N)N)C(=O)N[C@@H](Cc1ccc(O)cc1)C(=O)N[C@@H](CCCN=C(N)N)C(=O)N[C@@H](CCCCN)C(=O)N[C@@H](CCC(N)=O)C(=O)N[C@@H](CCSC)C(=O)N[C@@H](C)C(=O)N[C@H](C(=O)N[C@@H](CCCCN)C(=O)N[C@@H](CCCCN)C(=O)N[C@@H](Cc1ccc(O)cc1)C(=O)N[C@@H](CC(C)C)C(=O)N[C@@H](C)C(=O)N[C@@H](C)C(=O)N[C@H](C(=O)N[C@@H](CC(C)C)C(N)=O)C(C)C)C(C)C)[C@@H](C)O [[Phe1]PACAP(1-27)]
2,30 nM,CC[C@H](C)[C@H](NC(=O)[C@H](CO)NC(=O)[C@H](CC(N)=O)NC(=O)[C@H](CC(C)C)NC(=O)[C@H](Cc1ccc(O)cc1)NC(=O)[C@H](CCCCN)NC(=O)[C@H](CCCCN)NC(=O)[C@@H](NC(=O)[C@H](C)NC(=O)[C@H](CCSC)NC(=O)[C@H](CCC(N)=O)NC(=O)[C@H](CCCCN)NC(=O)[C@H](CCCN=C(N)N)NC(=O)[C@H](CC(C)C)NC(=O)[C@H](CCCN=C(N)N)NC(=O)[C@@H](NC(=O)[C@H](Cc1ccc(O)cc1)NC(=O)[C@H](CC(N)=O)NC(=O)[C@H](CC(=O)O)NC(=O)[C@@H](NC(=O)[C@H](Cc1ccccc1)NC(=O)[C@@H](NC(=O)[C@H](C)NC(=O)[C@H](CC(=O)O)NC(=O)[C@H](CO)NC(=O)[C@@H](N)Cc1ccccc1)C(C)C)[C@@H](C)O)[C@@H](C)O)C(C)C)C(=O)N[C@@H](CC(C)C)C(=O)N[C@@H](CC(N)=O)C(N)=O [[Phe1]VIP] (H-FSDAVFTDNYTRLRKQMAVKKYLNSILN-NH2)
